Experimental data reported in paper PMC12717099, “Peptidoglycan recruitment by a penicillin binding protein” (Nature Communications, 2025).
Like-named read-outs stand apart in the source and are kept apart here.

Tests used:
PBP5 (PBP5_37-678) = assay: NMR chemical shift perturbation titration (2D [1H,15N] TROSY, 2D [1H,13C] ILV methyl HMQC) of stem peptides / PG into PBP5; format: binding, Enterococcus faecium; details: NH CSP titration up to 1:80 PBP5:SP1, not saturated: KD overestimated (upper bound); 10 mM MES pH 5.8, 25 mM NaCl, 308 K; read-out: KD, mean±std of residue-specific values
Description: Data was processed using Topspin 4.1.4 (Bruker) and analyzed using NMRFAM-SPARKY 1.3 and Poky (build number 20240829)[20],[21]. The sequence-specific backbone assignment of PBP5 is publicly available at BMRBID 51690.
SPs (SP1 to SP7) were titrated into 0.5 mM (^2H,^15N)-labeled and 0.1 mM (^2H,^15N)/^13C ILV labeled PBP5 at molar ratios of 0:1, 5:1, 10:1, 20:1, 40:1, 60:1, and 80:1 (stem peptide/SP:PBP5; molar ratios). 2D [^1H,^15N] TROSY or 2D [^1H,^13C] HMQC spectra were recorded for each titration point. SPs were solubilized in NMR buffer. Chemical shift perturbations (Δδ) between PBP5 and SP bound PBP5 spectra were calculated using Eq. 1,1 Δδppm=ΔδH^2+ΔδX/Y^2 where, X is ^15N or ^13C and Y is the constant i.e., 10 for ^15N and 4 for ^13C.
Residues with significant CSPs were identified by calculating the standard deviation of all CSPs (σ), then excluding any CSPs larger than average+2σ, recalculating σ as a new corrected σ0, and then repetitively removing CSPs above 2σ0 until no additional CSPs can be removed. CSPs above ≥2σ2 was the statistical threshold for ^1H/^15N backbone CSP analysis and ≥2xσ1 for ^1H/^13C methyl ILV data for the interaction of SP1 with PBP5. The same threshold values were used for all other peptides to allow for direct comparison with the SP1/PBP5 interaction. The identical significance analysis was also performed for PenG/ceftaroline saturated PBP5 (1:8 molar ratio of PBP5 to β-lactam antibiotics was used to ensure saturation of an extended time period needed for the SP titrations) SP interaction studies; CSPs above ≥2σ3 was the statistical threshold for ^1H/^15N backbone CSP analysis and ≥2xσ2 for ^1H/^13C methyl ILV data to identify all residues with a statistically significant change in its chemical shift upon SP interaction.
Residue specific KD values were calculated by using Eq. 2[23],2 CSPobs=CSPmax/2PP+S+KD−P+S+KD^2−4[S][P] where P and S are the concentration of PBP5 and SP1, respectively. CSPobs is the experimentally observed chemical shift value and CSPmax is the largest experimentally observed chemical shift value of the residue. […] The lack of saturation was due to the limited amount of available SP peptide due to their difficult synthesis. Residues used for KD calculation were common residues with statistically significant CSPs in the interaction studies of SP1 and SP2 with PBP5 at a 1:80 ratio.

PBP4 = details: for STD amplification factor, 2000: protein:peptide 1:100, 2 s saturation
Description: STD NMR experiments were carried out on 0.02 mM unlabeled PBP5T485, PBP4, and PBP2B in NMR buffer (10 mM MES pH 5.8, 25 mM NaCl) at 308 K with the peptides (SP1, SP2, SP4, SP5 and SP6 with PBP5, SP2 also with PBP4 and PBP2B) at 1:100 PBP5:peptide molar ratios using a pseudo 2D pulse sequence that leverages a shaped pulse train for saturation and selected water suppression by excitation sculpting with gradients. All STD experiments were performed at 800 MHz for best resolution and least signal overlap. Total saturation time for STD measurements was 2 s. A 2 s recycling delay, and 64 scans were used for all STD experiments. Selective protein saturation was achieved by setting the on-resonance frequency on PBP5 methyl peaks at 0.73 ppm. For the off-resonance (reference) spectrum, the irradiation frequency was shifted to −40 ppm. […] LTotal/PTotal is the ligand excess relative to a constant protein concentration.
For a uniform analysis, we normalized the STD amplification factor by using the highest STD amplification factor in the SP1:PBP5 analysis and using the same STD amplification factor to normalize other SPs (SP2-6) to allow for a rigorous comparison. For the analysis of the STD NMR data only data from non-exchangeable protons (CH groups) were utilized. Overlapped peaks were completely excluded from the analysis.

“D-Lac-L-Ala-D-iGln-L-Lys(D-iAsn)-D-Ala-D-Ala [SP1]” was tested, and the Kd (PBP5 (PBP5_37-678)) was ~4 mM.
In the case of D-Lac-L-Ala-D-iGln-L-Lys(D-iAsn) [SP2], the “STD % to SP1” value (PBP4; 1H DLacβ) is reported as 28.7108%, the “STD amplification factor as fraction of highest SP1:PBP5 value” (shortened to “STD amplification factor as fraction”) (PBP4; 1H DLacβ) is reported as 0.2871 and the “STD amplification factor, 2000” value (PBP4; 1H DLacβ) is reported as 7.726. For the same substance, the “STD % to SP1” value (PBP4; 1H DQ2β (first listed)) was 57.5161%, the “STD amplification factor as fraction” value (PBP4; 1H DQ2β (first listed)) was 0.5752 and the “STD amplification factor, 2000” value (PBP4; 1H DQ2β (first listed)) was 15.4766. For the same substance, the “STD % to SP1” value (PBP4; 1H DQ2β (second listed)) was 62.3639%, the “STD amplification factor as fraction” value (PBP4; 1H DQ2β (second listed)) was 0.6236 and the “STD amplification factor, 2000” value (PBP4; 1H DQ2β (second listed)) was 16.7811. The “STD % to SP1” value (PBP4; 1H DQ2γ) was 18.9556%, the “STD amplification factor as fraction” value (PBP4; 1H DQ2γ) was 0.1896 and the “STD amplification factor, 2000” value (PBP4; 1H DQ2γ) was 5.101. For the same substance, the “STD % to SP1” value (PBP4; 1H K3α) was 41.8044%, the “STD amplification factor as fraction” value (PBP4; 1H K3α) was 0.418 and the “STD amplification factor, 2000” value (PBP4; 1H K3α) was 11.2489. The “STD % to SP1” value (PBP4; 1H K3β) was 89.5852%, the “STD amplification factor as fraction” value (PBP4; 1H K3β) was 0.8959 and the “STD amplification factor, 2000” value (PBP4; 1H K3β) was 24.1059. The “STD % to SP1” value (PBP4; 1H K3γ) was 46.145%, the “STD amplification factor as fraction” value (PBP4; 1H K3γ) was 0.4615 and the “STD amplification factor, 2000” value (PBP4; 1H K3γ) was 12.4169. The “STD % to SP1” value (PBP4; 1H K3δ) was 58.6188%, the “STD amplification factor as fraction” value (PBP4; 1H K3δ) was 0.5862 and the “STD amplification factor, 2000” value (PBP4; 1H K3δ) was 15.7734. The “STD % to SP1” value (PBP4; 1H K3ε) was 16.4854%, the “STD amplification factor as fraction” value (PBP4; 1H K3ε) was 0.1649 and the “STD amplification factor, 2000” value (PBP4; 1H K3ε) was 4.436. For the same substance, the “STD % to SP1” value (PBP4; 1H LA1α) was 41.4108%, the “STD amplification factor as fraction” value (PBP4; 1H LA1α) was 0.4141 and the “STD amplification factor, 2000” value (PBP4; 1H LA1α) was 11.143. The “STD % to SP1” value (PBP4; 1H LA1β) was 30.5144%, the “STD amplification factor as fraction” value (PBP4; 1H LA1β) was 0.3051 and the “STD amplification factor, 2000” value (PBP4; 1H LA1β) was 8.211. The “STD % to SP1” value (PBP4; 1H iNα,DQ2α) was 21.1266%, the “STD amplification factor as fraction” value (PBP4; 1H iNα,DQ2α) was 0.2113 and the “STD amplification factor, 2000” value (PBP4; 1H iNα,DQ2α) was 5.685. The “STD % to SP1” value (PBP4; 1H iNβ) was 26.2423%, the “STD amplification factor as fraction” value (PBP4; 1H iNβ) was 0.2624 and the “STD amplification factor, 2000” value (PBP4; 1H iNβ) was 7.061.
